From PubChem BioAssay AID2060906 (Molecular Pharmacology Branch, DTP, NCI, 2025)
Values belong to the compound of their own block, whether it stands above or below them.

Tested on: 485176-168-R4-J1-PDC complex spheroid growth
Assay: Anticancer human tumor 485176-168-R4-J1-PDC patient-derived pancreatic adenocarcinoma cell line growth inhibition [RAS]
Details: for IC50: curve of first compound; for viability, T/C: stronger effect = lower value
From the text: RAS pathway inhibitors in Combinations in Complex Spheroids
A high-throughput screen of multi-cell type tumor spheroids was designed to identify active combinations of RAS pathway inhibitors and targeted small molecules. Complex spheroids include a stromal component modeled by human endothelial cells (HUVEC) and fibroblasts modeled by human mesenchymal stem cells (MSCs). The concentration ranges selected for each drug and investigational agent were based upon clinically achievable concentrations if the clinical Cmax of the agent was known.
Compounds. The drugs and investigational agents: abemaciclib (NSC768073), cobimetinib (NSC768068), divarasib (GDC6063, NSC841802), docetaxel (NSC628503), GDC-1971 (RLY-1971, NSC841576), gemcitabine (NSC613327), inavolisib (NSC800729), ipatasertib (NSC767898), KB-0742 (NSC834161), MRTX-1133 (NSC836407), osimertinib (NSC779217), RMC-4630 (NSC839698), RMC-6236 (NSC851965), RMC-6291 (NSC852671), Ro-3306 (NSC812927), sapanisertib (NSC764658), SN-38 (NSC673596), staurosporine (NSC755774), SY5609 (NSC837396), and tovorafenib (DAY101, NSC766906), were obtained from the National Cancer Institute (NCI) Developmental Therapeutics Program Chemical Repository. The FDA-approved anticancer drug set is available from the NCI Developmental Therapeutics Program. […] The stock solutions were prepared in dimethyl sulfoxide (DMSO, Sigma-Aldrich, St. Louis, MO, cat. D2650) at 800-fold the tested concentration and stored at -70 degrees C prior to their use. All drugs and investigational agents were tested over a range starting from a high concentration at or near the clinical Cmax and decreasing in half-log increments. If the clinical Cmax for an agent had not been determined, the highest concentration tested was 10 microM.
Cell Culture. All cells were maintained in an incubator at 37 degrees C and 5% CO2 with 95% humidity. The PDC lines were cultured according to standard operating procedures established by the NCI PDMR. All PDCs were thawed and cultured in Matrigel-coated flasks prepared with a working solution of 1X Ham's F-12 nutrient mix, without supplementation (Invitrogen, Waltham, MA, cat. 11765054), 100 U/mL penicillin-streptomycin (Invitrogen, cat. 15140122), and 2.5% Matrigel (Corning Inc., Corning, NY, cat. 354248) for the first three passages. The 362531-283-R-J2-PDC and 782815-120-R-J1-PDC lines were cultured in 6C/Colon 1B media, which includes advanced DMEM/F-12 (Thermo Fisher Scientific, cat. 12634028), 10 mM HEPES (Thermo Fisher Scientific, cat. 15630080), 1X GlutaMAX supplement (Thermo Fisher Scientific, cat. 35050061), 0.1 mg/mL primocin (InvivoGen, San Diego, CA, cat. ant-pm-2), 10% defined fetal bovine serum, heat inactivated (HyClone Laboratories Inc., Logan, UT, cat. SH30070.03HI), 50% L-WRN conditioned media (ATCC, cat. CRL-3276), 1.25 mM N-Acetyl-L-cysteine (Sigma-Aldrich, cat. A9165), 10 mM nicotinamide (Sigma-Aldrich, cat. N0636), 1X B-27 supplement (Thermo Fisher Scientific, cat. 17504044), 1X N-2 supplement (Thermo Fisher Scientific, cat. 17502048), 50 ng/mL human EGF (Thermo Fisher Scientific, cat. PHG0311), and 10 microM Y-27632 dihydrochloride (Tocris Bioscience, cat. 1254). The K12877-001-R-J1-PDC line was cultured in 6I media, which includes all 6C/Colon 1B media plus 10 ng/mL human FGF-10 (PeproTech, cat. 100-26), 1 ng/mL human FGF-2 (PeproTech, cat. 100-18B), 1 µM prostaglandin E2 (Tocris Bioscience, cat. 2296), […] hydrocortisone (Sigma-Aldrich, cat. H4001), and […] bovine insulin (Sigma-Aldrich, cat. I6634). The K86415-001-R-J1-PDC line was cultured in 6D media, which includes all 6C/Colon 1B media components minus the L-WRN conditioned media. The 485176-168-R4-J1-PDC was cultured in PANC media, which includes all 6C/Colon 1B media plus 100 ng/mL human FGF-10 (PeproTech, cat. 100-26), 500 nM SB-431542 (Selleckchem, cat. S1067), and 10 nM gastrin (Tocris Bioscience, cat. 3006). […]

[1] = second compound 0.0316 µM, first compound 0.0316 µM
[2] = second compound 0.0316 µM, first compound 0.1 µM
[3] = second compound 0.0316 µM, first compound 0.316 µM
[4] = second compound 0.0316 µM, first compound 1 µM
[5] = second compound 0.1 µM, first compound 0.0316 µM
[6] = second compound 0.1 µM, first compound 0.1 µM
[7] = second compound 0.1 µM, first compound 0.316 µM
[8] = second compound 0.1 µM, first compound 1 µM
[9] = second compound 0.316 µM, first compound 0.0316 µM
[10] = second compound 0.316 µM, first compound 0.1 µM
[11] = second compound 0.316 µM, first compound 0.316 µM
[12] = second compound 0.316 µM, first compound 1 µM
[13] = second compound 1 µM, first compound 0.0316 µM
[14] = second compound 1 µM, first compound 0.1 µM
[15] = second compound 1 µM, first compound 0.316 µM
[16] = second compound 1 µM, first compound 1 µM
[17] = second compound 3.16 µM, first compound 0.0316 µM
[18] = second compound 3.16 µM, first compound 0.1 µM
[19] = second compound 3.16 µM, first compound 0.316 µM
[20] = second compound 3.16 µM, first compound 1 µM
[21] = second compound 10 µM, first compound 0.0316 µM
[22] = second compound 10 µM, first compound 0.1 µM
[23] = second compound 10 µM, first compound 0.316 µM
[24] = second compound 10 µM, first compound 1 µM
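Further: spheroids exposed to compounds for seven days before readout.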
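Wherever viability, T/C is given: luminescence viability expressed relative to DMSO vehicle wells set as 100%.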

IC50 (second compound 0.0316 µM): > 1 µM | IC50 (second compound 0.1 µM): > 1 µM | IC50 (second compound 0.316 µM): > 1 µM | IC50 (second compound 1 µM): > 1 µM | IC50 (second compound 3.16 µM): > 1 µM | IC50 (second compound 10 µM): > 1 µM
SMILES: CCN1CCN(Cc2ccc(Nc3ncc(F)c(-c4cc(F)c5nc(C)n(C(C)C)c5c4)n3)nc2)CC1 + C#Cc1c(F)ccc2cc(O)cc(-c3ncc4c(N5CC6CCC(C5)N6)nc(OCC56CCCN5CC(F)C6)nc4c3F)c12
viability, T/C (second compound 0.0316 µM, first compound 0.00316 µM): 91.1% | viability, T/C (second compound 0.0316 µM, first compound 0.01 µM): 83.4% | viability, T/C [1]: 101% | viability, T/C [2]: 100% | viability, T/C [3]: 73.9% | viability, T/C [4]: 64.9% | viability, T/C (second compound 0.1 µM, first compound 0.00316 µM): 117% | viability, T/C (second compound 0.1 µM, first compound 0.01 µM): 109% | viability, T/C [5]: 79.7% | viability, T/C [6]: 85.1% | viability, T/C [7]: 78.8% | viability, T/C [8]: 55.4% | viability, T/C (second compound 0.316 µM, first compound 0.00316 µM): 97.1% | viability, T/C (second compound 0.316 µM, first compound 0.01 µM): 95.6% | viability, T/C [9]: 90.7% | viability, T/C [10]: 104% | viability, T/C [11]: 84.3% | viability, T/C [12]: 63.9% | viability, T/C (second compound 1 µM, first compound 0.00316 µM): 96.8% | viability, T/C (second compound 1 µM, first compound 0.01 µM): 101% | viability, T/C [13]: 101% | viability, T/C [14]: 86.8% | viability, T/C [15]: 72% | viability, T/C [16]: 70.1% | viability, T/C (second compound 3.16 µM, first compound 0.00316 µM): 110% | viability, T/C (second compound 3.16 µM, first compound 0.01 µM): 92.8% | viability, T/C [17]: 81.5% | viability, T/C [18]: 92.8% | viability, T/C [19]: 77.5% | viability, T/C [20]: 61.3% | viability, T/C (second compound 10 µM, first compound 0.00316 µM): 103% | viability, T/C (second compound 10 µM, first compound 0.01 µM): 95.5% | viability, T/C [21]: 84.4% | viability, T/C [22]: 79.6% | viability, T/C [23]: 96.6% | viability, T/C [24]: 61.6%

IC50 (second compound 0.0316 µM): > 10 µM | IC50 (second compound 0.1 µM): > 10 µM | IC50 (second compound 0.316 µM): > 10 µM | IC50 (second compound 1 µM): > 10 µM | IC50 (second compound 3.16 µM): > 10 µM | IC50 (second compound 10 µM): > 10 µM
SMILES: C[C@@H](NC(=O)c1ncnc(N)c1Cl)c1ncc(C(=O)Nc2cc(C(F)(F)F)c(Cl)cn2)s1 + C#Cc1c(F)ccc2cc(O)cc(-c3ncc4c(N5CC6CCC(C5)N6)nc(OCC56CCCN5CC(F)C6)nc4c3F)c12
viability, T/C [1]: 123% | viability, T/C [2]: 101% | viability, T/C [3]: 102% | viability, T/C [4]: 78.9% | viability, T/C (second compound 0.0316 µM, first compound 3.16 µM): 87.8% | viability, T/C (second compound 0.0316 µM, first compound 10 µM): 58.8% | viability, T/C [5]: 106% | viability, T/C [6]: 100% | viability, T/C [7]: 86.7% | viability, T/C [8]: 81.7% | viability, T/C (second compound 0.1 µM, first compound 3.16 µM): 73.5% | viability, T/C (second compound 0.1 µM, first compound 10 µM): 62.1% | viability, T/C [9]: 97.2% | viability, T/C [10]: 86.3% | viability, T/C [11]: 73% | viability, T/C [12]: 84.1% | viability, T/C (second compound 0.316 µM, first compound 3.16 µM): 69.9% | viability, T/C (second compound 0.316 µM, first compound 10 µM): 63% | viability, T/C [13]: 84.8% | viability, T/C [14]: 81.8% | viability, T/C [15]: 101% | viability, T/C [16]: 75.3% | viability, T/C (second compound 1 µM, first compound 3.16 µM): 74.7% | viability, T/C (second compound 1 µM, first compound 10 µM): 57.2% | viability, T/C [17]: 103% | viability, T/C [18]: 96.8% | viability, T/C [19]: 94.7% | viability, T/C [20]: 80.5% | viability, T/C (second compound 3.16 µM, first compound 3.16 µM): 69.8% | viability, T/C (second compound 3.16 µM, first compound 10 µM): 63% | viability, T/C [21]: 97.6% | viability, T/C [22]: 87% | viability, T/C [23]: 83.6% | viability, T/C [24]: 80.3% | viability, T/C (second compound 10 µM, first compound 3.16 µM): 75% | viability, T/C (second compound 10 µM, first compound 10 µM): 58.1%
